# Article PMC5063506, “A Novel Class of Small Molecule Agonists with Preference for Human over Mouse TLR4 Activation” (PLoS ONE, 2016)
# Like-named read-outs stand apart in the source and are kept apart here.
# Columns and labels:
# [1] = LogD, octanol/water distribution coefficient; assay type: physicochemical; settings: pH 7.4; octanol/water distribution coefficient at pH7.4
# Excerpt: (§1) Fig 2 Optimization stages of Ugi products as TLR4 agonists. *Human TLR-4 NFκB SEAP reporter assays; protocol as described in Methods. Data are reported as pEC50, or negative log of the EC50 values. **Clint rh / hm represents intrinsic clearance in presence of rat hepatocytes (μL/min/10^6 cells) and human microsomes (μL/min/mg protein). […] Thus a drug molecule with LogD >4 might be considered to be very lipophilic and therefore more likely to suffer from rapid metabolic turnover, poor solubility and receptor promiscuity; whereas a LogD range of 1–3 is more likely to be associated with optimal physicochemical and drug-like properties. ^††Solubility was measured by dissolution of solid samples in buffer at pH 7.4.
# [2] = Intrinsic clearance in presence of human microsomes; assay type: in vitro ADME; settings: read-out: Clint hm (intrinsic clearance, human microsomes)
# Excerpt: as §1
# [3] = Intrinsic clearance in presence of rat hepatocytes; assay type: in vitro ADME; settings: read-out: Clint rh (intrinsic clearance, rat hepatocytes)
# Excerpt: as §1
# [4] = Solubility by dissolution of solid samples in buffer; assay type: physicochemical; settings: aqueous buffer, thermodynamic from solid; solid samples in buffer at pH 7.4
# Excerpt: as §1
# human TLR4 = target: T1, human TLR4 (Homo sapiens, UniProt O00206+Q9Y6Y9); test: Human TLR4 NFκB SEAP reporter gene assay in hTLR4-transfected HEK293 cells; assay type: cell-based; settings: for EC50: NFκB SEAP reporter, hTLR4-transfected HEK293 cells, 20 h, read-out: Human TLR4 pEC50 (converted)
# T1 construct: expressed in transfected cells; host or cells: HEK293 with stably integrated pNiFty2-SEAP reporter
# Protocol: (§2) HEK293 cells stably transfected with pNiFty2-SEAP reporter plasmid were transiently transfected with either human or mouse TLR4 (pUNO expression vector), in combination with either human or mouse CD14/MD2 (pDUO expression vector). Transient transfectants were seeded in Dulbecco’s Modified Eagle Medium, FCS 10% (v/v), 2 mM l glutamine and non-essential amino acids. Cells were seeded in tissue culture treated clear flat bottom polystyrene 96 well plates (Costar, 3598) at 1e4 cells/well. Concentration-response curves were generated by addition of test compounds and incubation for 20 h at 37°C in an atmosphere of 5% CO2. LPS (E. coli 0111:B4, Ultra-pure, Invivogen) or PHAD (Avanti Polar Lipids) was used as a positive control. The SEAP released was quantified using p nitrophenyl phosphate as a substrate, and the absorbance at 405 nm was measured at 30 second intervals over several minutes using a microplate reader. Some data are recorded as the pEC50, the negative log of the EC50 value. Other data generated from these reporter cell lines were converted to AUC (area under the curve) values by interpolation of fitted cubic spline curve between OD value and log concentration levels. The calculation is performed using MESS package in statistical software R (www.r-project.org/).
# cytochrome P450 enzymes = test: Inhibition of cytochrome P450 enzymes (unpublished data); assay type: in vitro ADME; settings: compared with earlier-stage, more lipophilic Ugi compounds
# mouse TLR4/MD2 = target: T2, mouse TLR4/MD2 (Mus musculus, UniProt Q9JHF9+Q9QUK6); test: mTLR4/MD2-HEK293 transfectant SEAP (QUANTI-Blue) dose response, AUC; assay type: cell-based; settings: 1 μg/ml to 4 ng/ml, 24 h, SEAP OD 650 nm vs log concentration
# T2 construct: host or cells: HEK293
# T2 sequence (Q9QUK6 26-835): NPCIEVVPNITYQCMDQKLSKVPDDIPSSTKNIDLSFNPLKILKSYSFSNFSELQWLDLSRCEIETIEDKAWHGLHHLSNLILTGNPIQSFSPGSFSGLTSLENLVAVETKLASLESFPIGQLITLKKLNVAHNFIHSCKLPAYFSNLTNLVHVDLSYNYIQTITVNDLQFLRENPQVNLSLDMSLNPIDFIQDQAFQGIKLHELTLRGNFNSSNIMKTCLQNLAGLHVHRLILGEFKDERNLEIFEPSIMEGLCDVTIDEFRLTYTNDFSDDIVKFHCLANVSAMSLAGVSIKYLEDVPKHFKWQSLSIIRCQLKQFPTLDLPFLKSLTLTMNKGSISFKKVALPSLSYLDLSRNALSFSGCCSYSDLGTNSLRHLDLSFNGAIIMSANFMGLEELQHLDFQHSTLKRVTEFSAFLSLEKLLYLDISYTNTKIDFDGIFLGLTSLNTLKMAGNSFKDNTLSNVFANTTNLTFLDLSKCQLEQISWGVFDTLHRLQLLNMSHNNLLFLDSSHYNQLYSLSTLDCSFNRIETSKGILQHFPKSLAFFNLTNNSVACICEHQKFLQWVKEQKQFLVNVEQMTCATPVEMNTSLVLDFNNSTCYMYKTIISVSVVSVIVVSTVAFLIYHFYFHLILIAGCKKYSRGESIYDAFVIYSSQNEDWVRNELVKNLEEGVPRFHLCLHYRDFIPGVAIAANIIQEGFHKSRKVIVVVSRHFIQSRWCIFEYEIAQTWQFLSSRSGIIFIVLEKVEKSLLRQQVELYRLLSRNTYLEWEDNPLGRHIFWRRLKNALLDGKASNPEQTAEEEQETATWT
# T2 sequence (Q9JHF9 19-160): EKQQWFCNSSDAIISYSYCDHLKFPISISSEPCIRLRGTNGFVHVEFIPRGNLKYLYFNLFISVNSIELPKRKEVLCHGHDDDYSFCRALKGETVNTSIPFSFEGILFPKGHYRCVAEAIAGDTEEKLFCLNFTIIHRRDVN
# Protocol: as §2, with “Cells” for “HEK293 cells stably transfected with pNiFty2-SEAP reporter plasmid were transiently transfected with either human or mouse TLR4 (pUNO expression vector), in combination with either human or mouse CD14/MD2 (pDUO expression vector). Transient transfectants were seeded in Dulbecco’s Modified Eagle Medium, FCS 10% (v/v), 2 mM l glutamine and non-essential amino acids. Cells”
# (§3) Fig 4 Ugi compounds preferentially activate TLR4-HEK transfectants expressing human MD2. A-B) HEK293 cells transfected with human TLR4/MD2 or mouse TLR4/MD2 (InVivogen) were stimulated with TLR4 agonists including MPL, PHAD, and Ugi compounds at 1 μg/ml to 4 ng/ml and with LPS at 25 ng/ml to 64 pg/ml for 24 h. SNs were analyzed for SEAP content by the QUANTI-Blue assay (InVivogen) and analysis at 650 nm by spectrophotometer. AUC (area under the curve) values were calculated as in Methods. No AUC value was calculated for LPS since it was utilized with a different dose range. C) HEK transfectants with cis- or trans-species expression of TLR4, MD2, and CD14 were stimulated with Ugi compounds in a dose response range of 9 μM to 1 nM or with LPS (boxes) at 75 ng/ml to 5 pg/ml for 48 h. Data was obtained as Vmax calculated over the initial linear portion of the kinetic absorbance measurements. The AUC (area under the curve) value for the dose response curve of Vmax vs log10 (molar units) was calculated for each compound using Trapezoidal rule. TEXT PRINTED IN THE PICTURE: (A) MPL: hTLR4-HEK AUC: 0.55 | (A) AZ617: hTLR4-HEK AUC: 5.90 | (A) AZ618: hTLR4-HEK AUC: 6.56 | (A) AZ839: hTLR4-HEK AUC: 6.00 | (A) AZ161: hTLR4-HEK AUC: 5.54 | (A) AZ902: hTLR4-HEK AUC: 7.04 | (A) GLA: hTLR4-HEK AUC: 3.75 | (B) MPL: mTLR4-HEK AUC: 13.27 | (B) AZ617: mTLR4-HEK AUC: 0.89 | (B) AZ618: mTLR4-HEK AUC: 1.03 | (B) AZ839: mTLR4-HEK AUC: 0.93 | (B) AZ161: mTLR4-HEK AUC: 0.99 | (B) AZ902: mTLR4-HEK AUC: 1.55 | (B) GLA: mTLR4-HEK AUC: 14.24
# human TLR4/MD2 = target: T3, human TLR4/MD2 (Homo sapiens, UniProt O00206+Q9Y6Y9); test: hTLR4/MD2-HEK293 transfectant SEAP (QUANTI-Blue) dose response, AUC; assay type: cell-based; settings: 1 μg/ml to 4 ng/ml, 24 h, SEAP OD 650 nm vs log concentration
# T3 construct: host or cells: HEK293
# Protocol: as §2, with “Cells” for “HEK293 cells stably transfected with pNiFty2-SEAP reporter plasmid were transiently transfected with either human or mouse TLR4 (pUNO expression vector), in combination with either human or mouse CD14/MD2 (pDUO expression vector). Transient transfectants were seeded in Dulbecco’s Modified Eagle Medium, FCS 10% (v/v), 2 mM l glutamine and non-essential amino acids. Cells”
# as §3
# TLR4/MD2 KO BMDCs = test: Cytokine induction in BMDCs of mTLR4/MD2 knockout mice; assay type: cell-based, mouse; settings: 24 h, 1 μg/ml TLR4 agonists, 2 μM R848
# Excerpt: (§4) Femur/tibia bones from w.t. C57BL/6, TLR4/MD2 KO, and hTLR4/MD2 KIKO mice were soaked in 10% FBS-RPMI. Muscle and fat tissue was stripped off from the bones with a scalpel, then, bone pairs from individual mice were transferred to 100 mm petri dishes. Femur and tibia bones were separated and the ends cut with dissecting scissors so that bone marrow cells (BMCs) could be removed by flushing the interior of the bones using a 21 G needle and warm 10% FBS-RPMI. BMCs were passed through a 70 μm strainer, followed by RBC lysis. BMCs were cultured in a 70 mm flask for 24 h in the presence of 10 ng/ml (200 unit/ml) of mGM-CSF. Non-adherent cells were collected, washed, and seeded in a 175 cm flask in the presence of 20 ng/ml of mGM-CSF. Every two days, the cells were fed with fresh media and 20 ng/ml mGM-CSF. On day 9, cells were harvested, washed, and stained for CD11c/CD11b expression to determine BMDC density. BMDCs were cultured at 50,000 cells/well for 24 h with 1 μg/ml MPL, LPS, Ugi compounds, or 2 μM R848 (InVivogen).
# (§5) Fig 10 Ugi compounds activate mouse BMDCs that express human TLR4/MD2. Bone marrow cells were isolated from femur/tibia bones of w.t. […] BMDCs were harvested at day 9, washed, counted, and stimulated in vitro for 24 h with 1 μg/ml TLR4 agonists and 2 μM R848. SNs were analyzed via mouse MILLIPLEX kits. Data are expressed as the means of 2 mice and are representative of 2 studies.
# C57BL/6 w.t. BMDCs = test: Cytokine induction in BMDCs of w.t. C57BL/6 mice; assay type: cell-based, mouse; settings: 24 h, 1 μg/ml TLR4 agonists, 2 μM R848
# Excerpt: as §4, §5
# T1 sequence (O00206 24-839): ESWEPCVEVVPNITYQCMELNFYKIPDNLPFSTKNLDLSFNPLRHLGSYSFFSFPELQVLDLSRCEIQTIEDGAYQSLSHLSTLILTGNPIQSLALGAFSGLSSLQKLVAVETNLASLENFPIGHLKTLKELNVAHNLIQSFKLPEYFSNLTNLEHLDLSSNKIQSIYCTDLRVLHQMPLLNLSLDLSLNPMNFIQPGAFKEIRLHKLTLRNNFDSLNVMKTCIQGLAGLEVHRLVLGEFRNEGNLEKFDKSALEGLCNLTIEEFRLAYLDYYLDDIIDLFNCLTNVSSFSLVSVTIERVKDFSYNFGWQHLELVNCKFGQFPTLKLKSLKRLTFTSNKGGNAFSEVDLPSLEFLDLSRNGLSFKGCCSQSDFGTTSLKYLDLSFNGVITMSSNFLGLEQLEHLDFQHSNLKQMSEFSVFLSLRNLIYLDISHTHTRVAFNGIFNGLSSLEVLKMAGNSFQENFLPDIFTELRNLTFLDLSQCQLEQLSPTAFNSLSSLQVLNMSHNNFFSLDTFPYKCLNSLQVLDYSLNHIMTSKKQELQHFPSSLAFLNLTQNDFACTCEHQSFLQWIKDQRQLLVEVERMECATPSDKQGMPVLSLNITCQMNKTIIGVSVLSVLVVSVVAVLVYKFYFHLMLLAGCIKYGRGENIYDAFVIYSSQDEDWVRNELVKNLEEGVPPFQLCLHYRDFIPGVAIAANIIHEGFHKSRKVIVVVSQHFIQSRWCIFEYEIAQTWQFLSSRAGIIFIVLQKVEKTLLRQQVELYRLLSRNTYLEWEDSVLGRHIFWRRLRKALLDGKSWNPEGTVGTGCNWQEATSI
# T1 sequence (Q9Y6Y9 19-160): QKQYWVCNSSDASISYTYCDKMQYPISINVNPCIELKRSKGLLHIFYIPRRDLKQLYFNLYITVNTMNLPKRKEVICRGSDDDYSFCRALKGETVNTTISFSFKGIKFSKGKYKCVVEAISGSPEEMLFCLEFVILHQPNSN
# T3 sequence (O00206 24-839): as the sequence (O00206 24-839) above
# T3 sequence (Q9Y6Y9 19-160): as the sequence (Q9Y6Y9 19-160) above
Compound,logD [1],EC50 (human TLR4),further results
"COc1ccc(N(C(=O)c2[nH]c(-c3ccccc3)cc2C)C(C(=O)NC2CCCC2)c2ccncc2)cc1 (stereo not shown) [AZ126, N-(2-(cyclopentylamino)-2-oxo-1-(pyridin-4-yl)ethyl)-N-(4-methoxyphenyl)-3-methyl-5-phenyl-1H-pyrrole-2-carboxamide]",> 4.5,2510 nM,microsomal CLint ([2]; human): 56 µL/min/mg; hepatocyte CLint ([3]; rat): 28 µL/min/1e6 cells; solubility [4]: 0.1 µM
COc1ccc(N(C(=O)c2cc(-c3ccccc3)n(-c3ccccc3)n2)C(C(=O)NC2CCCC2)c2ccc(CC(=O)O)cc2)cc1 (stereo not shown) [AZ635],2.74,100 nM,–
C#Cc1ccc(C(C(=O)N[C@@H](C(=O)O)C(C)C)N(C(=O)c2cc(-c3ccccc3)n(-c3ccccc3)n2)c2ccc(OC)cc2)cc1 (stereo partly shown) [AZ792],–,2000 nM,–
O=C(O)Cc1ccc(C(C(=O)NC2CCCC2)N(C(=O)c2cc(-c3ccccc3)n(-c3ccccc3)n2)c2ccc(Cc3ccccc3)cc2)cc1 (stereo not shown) [AZ897],4.3,12.3 nM,–
"CC(C)c1ccc(N(C(=O)c2cc(-c3ccccc3)n(-c3ccccc3)n2)C(C(=O)NC2CCCC2)c2ccc(/C=C/C(=O)O)cc2)cc1 (stereo not shown) [AZ368, (E)-3-(4-(2-(cyclopentylamino)-1-(N-(4-isopropylphenyl)-1,5-diphenyl-1H-pyrazole-3-carboxamido)-2-oxoethyl)phenyl)acrylic acid]",–,1.58 nM,–
C#Cc1ccc(C(C(=O)NC2CCCC2)N(C(=O)c2ccc(-c3ccccc3)[nH]2)c2ccc(OC)cc2)cc1 (stereo not shown) [AZ462],> 4.5,1000 nM,–
COc1ccc(N(C(=O)c2cc(-c3ccccc3)n(-c3ccccc3)n2)C(C(=O)NC2CCCC2)c2ccncc2)cc1 (stereo not shown) [AZ842],> 4.5,398 nM,–
C#Cc1ccc(C(C(=O)NC2CCCC2)N(C(=O)c2cc(-c3ccccc3)n(-c3ccccc3)n2)c2ccc(OC)cc2)cc1 (stereo not shown) [AZ606],> 4.5,–,microsomal CLint [2]: 39 µL/min/mg; inhibition of one or more cytochrome P450 enzymes (cytochrome P450 enzymes): greatly reduced; hepatocyte CLint [3]: 36 µL/min/1e6 cells; solubility [4]: 2.2 µM; increase in potency in the hTLR4-HEK assay (human TLR4; relative to AZ126): 10 fold
"CCCCCCCCCCCCCC(=O)O[C@H](CCCCCCCCCCC)CC(=O)O[C@@H]1[C@@H](NC(=O)C[C@H](CCCCCCCCCCC)OC(=O)CCCCCCCCCCCCC)[C@H](OC[C@H]2O[C@H](O)[C@H](NC(=O)C[C@H](O)CCCCCCCCCCC)[C@@H](OC(=O)C[C@H](O)CCCCCCCCCCC)[C@@H]2O)O[C@H](CO)[C@H]1OP(=O)(O)O [GLA, glucopyranosyl lipid A, reference compound]",–,–,mTLR4-HEK AUC (mouse TLR4/MD2): 14.24; hTLR4-HEK AUC (human TLR4/MD2): 3.75
CC(C)c1ccc(N(C(=O)c2cc(-c3ccccc3)n(-c3ccccc3)n2)C(C(=O)NC2CCCC2)c2ccc(CC(=O)NO)cc2)cc1 (stereo not shown) [AZ226],> 4.5,158 nM,–
CCOCc1nc2c(N)nc3ccccc3c2n1CC(C)(C)O [R848],–,–,cytokine response of mTLR4/MD2 knockout BMDCs (TLR4/MD2 KO BMDCs): retained; cytokine response of C57BL/6 w.t. BMDCs (C57BL/6 w.t. BMDCs): strong response
Cc1cccc(CN(C(=O)c2cc(-c3ccccc3)n(-c3ccccc3)n2)C(C(=O)NC2CCCC2)c2ccc(CC(=O)O)cc2)c1C (stereo not shown) [AZ839],3.62,25.1 nM,mTLR4-HEK AUC (mouse TLR4/MD2): 0.93; hTLR4-HEK AUC (human TLR4/MD2): 6.00
